Experimental data published in patent US11000033B2, “Ketone or oxime compound, and herbicide” (NISSAN CHEMICAL CORPORATION, priority 2014, dated 2021).

Legend:
Type in all cases: in vivo
Scirpus juncoides = experiment: Test Example 1: herbicidal activity, application before weed generation in submerged conditions (symbol B); details: application herbicide amount 320 g/ha
Method in brief: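 Weed control was rated three weeks after treatment on a 0–5 scale, from 5% or lower up to 90% or more. Pre-emergence water-surface application of diluted emulsion at a predetermined rate was made on the day of sowing, in flooded (4 cm water) pots containing rice seedlings, kept at 25–30 °C under glass.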

Cyperus difformis = experiment: Test Example 3: herbicidal effect by foliage application, Wagner pot (symbol E); details: application herbicide amount 320 g/ha
Method in brief: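 Weeds and rice were sown in alluvial soil under 0.1–0.5 cm of standing water and grown for 14 days in a 25–30 °C greenhouse. An emulsion of the compound, diluted in water to a set dose, was sprayed evenly onto the foliage. Effect was scored against fixed criteria 3 weeks after treatment.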

Alopecurus myosuroides = experiment: Test Example 4: herbicidal effect by soil treatment (symbol J)
Method in brief: (§1)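 Seeds were sown in sterilized diluvial soil, covered with about 1.5 cm of soil, and the soil surface was sprayed with a water-diluted emulsion of the compound at a predetermined rate. Plants grew in a greenhouse at 25° C. to 30° C.; effects were scored visually 3 weeks after application.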

Abutilon theophrasti [1] = experiment: Test Example 4: herbicidal effect by soil treatment (symbol M)
Method in brief: as §1

corn = experiment: Test Example 4: effect on crop by soil treatment (symbol c)
Method in brief: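 Sterilized diluvial soil, spot sowing, ~1.5 cm soil cover; greenhouse 25–30° C.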

Digitaria ciliaris = experiment: Test Example 5: herbicidal effect by foliage application, plastic box (symbol F); details: 320 g/ha, 3 weeks after application
Method in brief: (§2)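 Post-emergence spray; diluvial soil (sterilized), ~1.5 cm seed cover; greenhouse 25–30° C; 14-day-old plants; water-diluted emulsion at predetermined dose; visual score at 3 wk post-treatment.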

Abutilon theophrasti [2] = experiment: Test Example 5: herbicidal effect by foliage application, plastic box (symbol M); details: 320 g/ha, 3 weeks after application
Method in brief: as §2

Amaranthus retroflexus = experiment: Test Example 5: herbicidal effect by foliage application, plastic box (symbol N); details: 320 g/ha, 3 weeks after application
Method in brief: as §2

Galium spurium = experiment: Test Example 5: herbicidal effect by foliage application, plastic box (symbol Q); details: 320 g/ha, 3 weeks after application
Method in brief: as §2

[3] = application herbicide amount 320 g/ha

Compound | Herbicidal effect grade, B: Scirpus juncoides (Scirpus juncoides) | herbicidal effect on E, grade 0-5 (Cyperus difformis) | J: Alopecurus myosuroides, herbicidal effect grade (Alopecurus myosuroides; [3]) | M: Abutilon theophrasti, herbicidal effect grade (Abutilon theophrasti [1]; [3]) | c: corn, effect on crop grade (corn; [3]) | F: Digitaria ciliaris, herbicidal effect grade (Digitaria ciliaris) | M: Abutilon theophrasti, herbicidal effect grade (Abutilon theophrasti [2]) | N: Amaranthus retroflexus, herbicidal effect grade (Amaranthus retroflexus) | Q: Galium spurium, herbicidal effect grade (Galium spurium) | J: Alopecurus myosuroides, herbicidal effect grade (Alopecurus myosuroides; 320 g/ha) | M: Abutilon theophrasti, herbicidal effect grade (Abutilon theophrasti [1]; 320 g/ha) | c: corn, effect grade on crop (corn; 320 g/ha) | F: Digitaria ciliaris, herbicidal effect (criteria 0-5) (Digitaria ciliaris) | M: Abutilon theophrasti, herbicidal effect (criteria 0-5) (Abutilon theophrasti [2]) | N: Amaranthus retroflexus, herbicidal effect (criteria 0-5) (Amaranthus retroflexus) | Q: Galium spurium, herbicidal effect (criteria 0-5) (Galium spurium) | J (Alopecurus myosuroides) herbicidal effect grade (Alopecurus myosuroides; [3]) | M (Abutilon theophrasti) herbicidal effect grade (Abutilon theophrasti [1]; [3]) | c (corn) effect on crop grade (corn; [3])
CCOC(=O)C(C(=O)C(C)C)C1CC(O)=C(c2c(C)cc(C)cc2C)C1=O (stereo not drawn) [2-009] | 0 (Herbicidal ratio of 5% or lower (almost no effect)) | 0 (Herbicidal ratio of 5% or lower (almost no effect)) | 0 (Herbicidal ratio of 5% or lower (almost no effect)) | 0 (Herbicidal ratio of 5% or lower (almost no effect)) | 0 (Herbicidal ratio of 5% or lower (almost no effect)) | 0 (Herbicidal ratio of 5% or lower (almost no effect)) | 0 (Herbicidal ratio of 5% or lower (almost no effect)) | 0 (Herbicidal ratio of 5% or lower (almost no effect)) | 0 (Herbicidal ratio of 5% or lower (almost no effect)) |  |  |  |  |  |  |  |  |  | 
CON=C(C)CC1CC(O)=C(c2c(C)cc(-c3cccc(Cl)c3)cc2C)C1=O (mixture of isomers) [6-034] | 5 (Herbicidal ratio of 90% or more (almost completely withered)) | 4 (Herbicidal ratio of 70% or higher and lower than 90%) | 5 (Herbicidal ratio of 90% or more (almost completely withered)) | 1 (Herbicidal ratio of 5% or higher and lower than 20%) | 1 (Herbicidal ratio of 5% or higher and lower than 20%) | 5 (Herbicidal ratio of 90% or more (almost completely withered)) | 3 (Herbicidal ratio of 40% or higher and lower than 70%) | 3 (Herbicidal ratio of 40% or higher and lower than 70%) | 5 (Herbicidal ratio of 90% or more (almost completely withered)) |  |  |  |  |  |  |  |  |  | 
CON=C(C)CC1CC(OC(=O)C(C)(C)c2ccc(Cl)cc2)=C(c2c(C)cc(C)cc2C)C1=O (stereo not drawn) [1-148] | 4 (Herbicidal ratio of 70% or higher and lower than 90%) | 4 (Herbicidal ratio of 70% or higher and lower than 90%) |  |  |  |  |  |  |  | 5 (Herbicidal ratio of 90% or more (almost completely withered)) | 5 (Herbicidal ratio of 90% or more (almost completely withered)) | 3 (Herbicidal ratio of 40% or higher and lower than 70%) | 5 (Herbicidal ratio of 90% or more (almost completely withered)) | 4 (Herbicidal ratio of 70% or higher and lower than 90%) | 2 (Herbicidal ratio of 20% or higher and lower than 40%) | 3 (Herbicidal ratio of 40% or higher and lower than 70%) |  |  | 
C#CCOC1=C(c2c(C)cc(C)cc2C)C(=O)C(CC(C)=NOC)C1 (stereo not drawn) [1-008] | 3 (Herbicidal ratio of 40% or higher and lower than 70%) | 4 (Herbicidal ratio of 70% or higher and lower than 90%) |  |  |  | 5 (Herbicidal ratio of 90% or more (almost completely withered)) | 2 (Herbicidal ratio of 20% or higher and lower than 40%) | 0 (Herbicidal ratio of 5% or lower (almost no effect)) | 0 (Herbicidal ratio of 5% or lower (almost no effect)) |  |  |  |  |  |  |  | 5 (Herbicidal ratio of 90% or more (almost completely withered)) | 0 (Herbicidal ratio of 5% or lower (almost no effect)) | 0 (Herbicidal ratio of 5% or lower (almost no effect))
